In one data set the target is COX-1 (Homo sapiens, UniProt P23219). As to the kind of experiment: biochemical.

Structures are written as SMILES.

Sequence of COX-1 (P23219 24-599): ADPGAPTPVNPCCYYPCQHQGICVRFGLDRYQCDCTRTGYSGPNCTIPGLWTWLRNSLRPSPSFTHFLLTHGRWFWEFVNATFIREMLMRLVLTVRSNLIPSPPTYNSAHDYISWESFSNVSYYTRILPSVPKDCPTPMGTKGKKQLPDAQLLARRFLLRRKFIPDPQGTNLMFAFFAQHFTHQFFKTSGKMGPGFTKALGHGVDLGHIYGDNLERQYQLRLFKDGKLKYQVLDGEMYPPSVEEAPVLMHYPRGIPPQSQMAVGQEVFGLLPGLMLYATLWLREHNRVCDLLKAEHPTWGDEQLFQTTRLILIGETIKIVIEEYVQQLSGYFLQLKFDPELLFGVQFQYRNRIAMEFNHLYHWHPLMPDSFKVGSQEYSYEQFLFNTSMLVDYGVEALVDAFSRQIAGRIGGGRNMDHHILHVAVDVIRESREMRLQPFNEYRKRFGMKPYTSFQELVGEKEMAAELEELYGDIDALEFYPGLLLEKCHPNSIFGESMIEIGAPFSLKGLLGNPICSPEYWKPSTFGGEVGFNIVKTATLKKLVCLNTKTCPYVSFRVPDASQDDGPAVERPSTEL
Method for COX-1: Evaluation of COX-1 and COX-2 Activity In Vitro
b. Assay for COX-1 and COX-2 Activity
COX activity was assayed as PGE2 formed/μg protein/time using an ELISA to detect the prostaglandin released. CHAPS-solubilized insect cell membranes containing the appropriate COX enzyme were incubated in a potassium phosphate buffer (50 mM, pH 8.0) containing epinephrine, phenol, and heme with the addition of arachidonic acid (10 μM). Compounds were pre-incubated with the enzyme for 10-20 minutes prior to the addition of arachidonic acid. […] The PGE2 formed was measured by standard ELISA technology (Cayman Chemical).

In the case of `O=C(O)C1=Cc2c(ccc(Cl)c2-c2ccco2)OC1C(F)(F)F` (stereo not drawn) [Example 867, 6-Chloro-5-(2-furyl)-2-(trifluoromethyl)-2H-chromene-3-carboxylic acid], the melting point lay in the range of 191 to 193 °C.
Compound `CCc1c(Cl)ccc2c1C=C(C(=O)O)C(C(F)(F)F)O2` (stereo not drawn) [Example 873, 6-Chloro-5-ethyl-2-(trifluoromethyl)-2H-chromene-3-carboxylic acid] gave a melting point of 171.5 to 172.5 °C.
The same measure, in the same setting: as for `O=C(O)C1=Cc2c(ccc(Cl)c2-c2ccsc2)OC1C(F)(F)F` (stereo not drawn) [Example 868, 6-Chloro-5-thien-3-yl-2-(trifluoromethyl)-2H-chromene-3-carboxylic acid], the figure is 211 to 213.5 °C; as for `Nc1c(Cl)ccc2c1C=C(C(=O)O)C(C(F)(F)F)O2` (stereo not drawn) [Example 876, 5-Amino-6-chloro-2-(trifluoromethyl)-2H-chromene-3-carboxylic acid], 208.5 to 210 °C; as for `O=C(O)C1=Cc2c(ccc(Cl)c2-c2ccccc2)OC1C(F)(F)F` (stereo not drawn) [Example 872, 6-Chloro-5-phenyl-2-(trifluoromethyl)-2H-chromene-3-carboxylic acid], 229 to 231 °C.
`O=C(O)C1=Cc2c(ccc3occ(-c4ccc(Br)cc4)c23)OC1C(F)(F)F` (stereo not drawn) [Example 922, 1-Para-bromophenyl-7-(trifluoromethyl)-7H-furo[3,2-f]chromene-8-carboxylic acid] had a melting point of over 250 °C.
The same measure, in the same setting: as for `O=C(O)C1=Cc2cc3occ(-c4ccc(Br)cc4)c3cc2OC1C(F)(F)F` (stereo not drawn) [Example 921, 3-(4-bromophenyl)-6-(trifluoromethyl)-6H-furo[2,3-g]chromene-7-carboxylic acid], the figure is over 250 °C.
On the same count and under the same terms, the value for `CCCc1ccc(Oc2ccc3c(c2)OC(C(F)(F)F)C(C(=O)O)=C3)cc1` (stereo not drawn) [Example 713, 7-(4-Propylphenoxy)-2-(trifluoromethyl)-2H-chromene-3-carboxylic acid] was 143.5 to 146.5 °C; that for `CCc1ccc(Oc2cc3c(cc2Cl)C=C(C(=O)O)[C@@H](C(F)(F)F)O3)cc1` (single isomer, unassigned) [Example 939] was 90 to 95 °C; that for `Cc1ccc(-c2c(Cl)ccc3c2C=C(C(=O)O)C(C(F)(F)F)O3)cc1` (stereo not drawn) [Example 869, 6-Chloro-5-(4-methylphenyl)-2-(trifluoromethyl)-2H-chromene-3-carboxylic acid] was 218 to 220 °C.
Same read-out and setting: as for `CCc1ccc(Oc2cc3c(cc2Cl)C=C(C(=O)O)[C@H](C(F)(F)F)O3)cc1` (single isomer, unassigned) [Example 931], the figure is 130 to 131 °C; as for `CC(C)c1cccc(-c2c(Cl)ccc3c2C=C(C(=O)O)C(C(F)(F)F)O3)c1` (stereo not drawn) [Example 871, 6-Chloro-5-(3-isopropylphenyl)-2-(trifluoromethyl)-2H-chromene-3-carboxylic acid], 184 to 186.5 °C.
`Cc1cccc(-c2c(Cl)ccc3c2C=C(C(=O)O)C(C(F)(F)F)O3)c1` (stereo not drawn) [Example 870, 6-Chloro-5-(3-methylphenyl)-2-(trifluoromethyl)-2H-chromene-3-carboxylic acid] yielded a melting point of 222.5 to 224 °C.
On the same count and under the same terms, as for `CC(F)(F)c1ccc2c(c1)C=C(C(=O)O)C(C(F)(F)F)O2` (stereo not drawn) [Example 34d, 6-(1,1-difluoroethyl)-2-(trifluoromethyl)-2H-chromene-3-carboxylic acid], the figure is 156 to 158 °C (dec.).
As to `CCc1cnc(Oc2cc3c(cc2Cl)C=C(C(=O)O)C(C(F)(F)F)O3)nc1` (stereo not drawn) [Example 864, 6-Chloro-7-[(5-ethylpyrimidin-2-yl)oxy]-2-(trifluoromethyl)-2H-chromene-3-carboxylic acid], the melting point was in the range of 96.5 to 98 °C.
`COc1ccc(Cl)c2c1OC(C(F)(F)F)C(C(=O)O)=C2` (stereo not drawn) [Example 23d, 5-chloro-8-methoxy-2-(trifluoromethyl)-2H-chromene-3-carboxylic acid]: the IC50 against COX-1 was over 500 µM.
Still for that read-out and setting: the value for `CC(C)(C)Oc1ccc2c(c1)OC(C(F)(F)F)C(C(=O)O)=C2` (stereo not drawn) [Example 5b, 7-tert-butoxy-2-(trifluoromethyl)-2H-chromene-3-carboxylic acid] was over 500 µM; that for `CC(C)(C(=O)O)c1cc2c(cc1Cl)C=C(C(=O)O)C(C(F)(F)F)O2` (stereo not drawn) [Example 115, 7-(1-carboxy-1-methylethyl)-6-chloro-2-(trifluoromethyl)-2H-chromene-3-carboxylic acid] was over 100 µM.

By melting point is commonly meant the temperature, or range, at which the solid turns liquid. Broadly, the IC50 is the point on the concentration scale where inhibition reaches its midpoint. Higher therefore signals lower potency.

The record behind these values is patent publication US20050148627A1, “Benzopyran compounds for use in the treatment and prevention of inflammation related conditions” (priority 2003, published 2005).
